The source made the active and inactive calls. The calls are words filed in the database; no cut-off is given here.
Experiments:
MOLM-13 [1] = test: Antiproliferative activity against human MOLM-13 cells incubated for 48 hrs by CCK-8 assay; assay type: functional, cell-based; settings: MOLM-13, 48 h
MV4-11 [2] = test: Antiproliferative activity against human MV4-11 cells incubated for 48 hrs by CCK-8 assay; assay type: functional, cell-based; settings: MV4-11, 48 h
MOLM-13 [3] = test: Induction of apoptosis in human MOLM-13 cells after 48 hrs by Annexin-V/PI staining based flow cytometry; assay type: functional, cell-based; settings: dose 1.25-10 nM
MV4-11 [4] = test: Induction of apoptosis in human MV4-11 cells after 48 hrs by Annexin-V/PI staining based flow cytometry; assay type: functional, cell-based; settings: dose 1.25-10 nM
MOLM-13 [5] = test: Induction of apoptosis in human MOLM-13 cells assessed as downregulation of Mcl-1 level at 15 nM measured upto 12 hrs by Western blot analysis; assay type: functional, cell-based; settings: time hrs <=12
MV4-11 [6] = test: Induction of apoptosis in human MV4-11 cells assessed as downregulation of Mcl-1 level at 15 nM measured upto 12 hrs by Western blot analysis; assay type: functional, cell-based; settings: time hrs <=12
MOLM-13 [7] = test: Induction of apoptosis in human MOLM-13 cells assessed as downregulation of Bcl-2 level at 15 nM measured upto 12 hrs by Western blot analysis; assay type: functional, cell-based; settings: time hrs <=12
MV4-11 [8] = test: Induction of apoptosis in human MV4-11 cells assessed as downregulation of Bcl-2 level at 15 nM measured upto 12 hrs by Western blot analysis; assay type: functional, cell-based; settings: time hrs <=12
MOLM-13 [9] = test: Induction of apoptosis in human MOLM-13 cells assessed as upregulation of cleaved caspase-3 level at 15 nM by Western blot analysis; assay type: functional, cell-based; settings: time 0-12 hrs, TDE = time-dependent effect
MV4-11 [10] = test: Induction of apoptosis in human MV4-11 cells assessed as upregulation of cleaved caspase-3 level at 15 nM by Western blot analysis; assay type: functional, cell-based; settings: time 0-12 hrs, TDE = time-dependent effect
[11] = system: Receptor-type tyrosine-protein kinase FLT3 (Homo sapiens), P36888 [UNDEFINED MUTATION]; test: Induction of FLT3-ITD degradation in human MOLM-13 cells after 24 hrs by Western blot analysis; assay type: cell-based
[12] = system: Receptor-type tyrosine-protein kinase FLT3 (Homo sapiens), P36888 [UNDEFINED MUTATION]; test: Induction of FLT3-ITD degradation in human MV4-11 cells after 24 hrs by Western blot analysis; assay type: cell-based
[13] = target: Mast/stem cell growth factor receptor Kit (Homo sapiens) (UniProt P10721); test: Induction of KIT degradation in human MOLM-13 cells at 0 to 25 nM after 24 hrs by Western blot analysis; assay type: cell-based; settings: dose 0-25 nM
[14] = target: Mast/stem cell growth factor receptor Kit (Homo sapiens) (UniProt P10721); test: Induction of KIT degradation in human MV4-11 cells at 0 to 25 nM after 24 hrs by Western blot analysis; assay type: cell-based; settings: dose 0-25 nM
[15] = target: Platelet-derived growth factor receptor beta (Homo sapiens) (UniProt P09619); test: Induction of PDGFR degradation in human MOLM-13 cells at 0 to 25 nM after 24 hrs by Western blot analysis; assay type: cell-based; settings: dose 0-25 nM
[16] = target: Platelet-derived growth factor receptor beta (Homo sapiens) (UniProt P09619); test: Induction of PDGFR degradation in human MV4-11 cells at 0 to 25 nM after 24 hrs by Western blot analysis; assay type: cell-based; settings: dose 0-25 nM
[17] = target: Receptor-type tyrosine-protein kinase FLT3 (Homo sapiens) (UniProt P36888); test: Inhibition of FLT3 in human MOLM-13 cells assessed as reduction in FLT3 phosphorylation at 15 nM by Western blot analysis; assay type: cell-based; settings: time 0-12 hrs, TDE = time-dependent effect
[18] = target: Receptor-type tyrosine-protein kinase FLT3 (Homo sapiens) (UniProt P36888); test: Inhibition of FLT3 in human MV4-11 cells assessed as reduction in FLT3 phosphorylation at 15 nM by Western blot analysis; assay type: cell-based; settings: time 0-12 hrs, TDE = time-dependent effect
[19] = target: Receptor-type tyrosine-protein kinase FLT3 (Homo sapiens) (UniProt P36888); test: Inhibition of FLT3 in human MOLM-13 cells assessed as reduction in STAT5 phosphorylation at 15 nM by Western blot analysis; assay type: cell-based; settings: time 0-12 hrs, TDE = time-dependent effect
[20] = target: Receptor-type tyrosine-protein kinase FLT3 (Homo sapiens) (UniProt P36888); test: Inhibition of FLT3 in human MV4-11 cells assessed as reduction in STAT5 phosphorylation at 15 nM by Western blot analysis; assay type: cell-based; settings: time 0-12 hrs, TDE = time-dependent effect
[21] = target: Receptor-type tyrosine-protein kinase FLT3 (Homo sapiens) (UniProt P36888); test: Inhibition of FLT3 in human MOLM-13 cells assessed as reduction in AKT phosphorylation at 15 nM by Western blot analysis; assay type: cell-based; settings: time 0-12 hrs, TDE = time-dependent effect
[22] = target: Receptor-type tyrosine-protein kinase FLT3 (Homo sapiens) (UniProt P36888); test: Inhibition of FLT3 in human MV4-11 cells assessed as reduction in AKT phosphorylation at 15 nM by Western blot analysis; assay type: cell-based; settings: time 0-12 hrs, TDE = time-dependent effect
[23] = target: Receptor-type tyrosine-protein kinase FLT3 (Homo sapiens) (UniProt P36888); test: Inhibition of FLT3 in human MOLM-13 cells assessed as reduction in ERK phosphorylation at 15 nM by Western blot analysis; assay type: cell-based; settings: time 0-12 hrs, TDE = time-dependent effect
[24] = target: Receptor-type tyrosine-protein kinase FLT3 (Homo sapiens) (UniProt P36888); test: Inhibition of FLT3 in human MV4-11 cells assessed as reduction in ERK phosphorylation at 15 nM by Western blot analysis; assay type: cell-based; settings: time 0-12 hrs, TDE = time-dependent effect
[25] = target: Mast/stem cell growth factor receptor Kit (Homo sapiens) (UniProt P10721); test: Inhibition of KIT in human MOLM-13 cells assessed as reduction in STAT3 phosphorylation at 5 to 25 nM after 24 hrs by Western blot analysis; assay type: cell-based; settings: dose 5-25 nM
[26] = target: Mast/stem cell growth factor receptor Kit (Homo sapiens) (UniProt P10721); test: Inhibition of KIT in human MV4-11 cells assessed as reduction in STAT3 phosphorylation at 5 to 25 nM after 24 hrs by Western blot analysis; assay type: cell-based; settings: dose 5-25 nM
[27] = target: Mast/stem cell growth factor receptor Kit (Homo sapiens) (UniProt P10721); test: Inhibition of KIT in human MOLM-13 cells assessed as reduction in PI3K phosphorylation at 5 to 25 nM after 24 hrs by Western blot analysis; assay type: cell-based; settings: dose 5-25 nM
[28] = target: Mast/stem cell growth factor receptor Kit (Homo sapiens) (UniProt P10721); test: Inhibition of KIT in human MV4-11 cells assessed as reduction in PI3K phosphorylation at 5 to 25 nM after 24 hrs by Western blot analysis; assay type: cell-based; settings: dose 5-25 nM
[29] = system: Receptor-type tyrosine-protein kinase FLT3 (Homo sapiens), P36888 [UNDEFINED MUTATION]; test: Induction of FLT3-ITD degradation in human MV4-11 cells at 20 nM pretreated with MG132 for 2 hrs followed compound addition for 6 hrs by Western blot analysis; assay type: cell-based
[30] = system: Receptor-type tyrosine-protein kinase FLT3 (Homo sapiens), P36888 [UNDEFINED MUTATION]; test: Induction of FLT3-ITD degradation in human MV4-11 cells at 20 nM pretreated with pomalidomide for 2 hrs followed compound addition for 6 hrs by Western blot analysis; assay type: cell-based
[31] = system: Receptor-type tyrosine-protein kinase FLT3 (Homo sapiens), P36888 [UNDEFINED MUTATION]; test: Induction of FLT3-ITD degradation in human MV4-11 cells at 20 nM pretreated with dov for 2 hrs followed compound addition for 6 hrs by Western blot analysis; assay type: cell-based
[32] = system: Receptor-type tyrosine-protein kinase FLT3 (Homo sapiens), P36888 [UNDEFINED MUTATION]; test: Induction of FLT3-ITD degradation in human MV4-11 cells assessed as accumulation of ubiquitinated FLT3-ITD at 15 nM preincubated for 4 hrs followed by MG132 addition for 2 hrs by immunoprecipitation assay; assay type: cell-based; settings: time 6.0 hrs
MOLM-13 [33] = test: Reduction in intracellular ROS level in human MOLM-13 cells measured after 12 hrs by DCFH-DA probe based flow cytometry; assay type: functional, cell-based; settings: dose 25-200 nM
MV4-11 [34] = test: Reduction in intracellular ROS level in human MV4-11 cells measured after 12 hrs by DCFH-DA probe based flow cytometry; assay type: functional, cell-based; settings: dose 25-200 nM
MV4-11 [35] = test: Antitumor activity against human MV4-11 cells xenografted in NOD/SCID mouse assessed as reduction in CD45-positive cells in bone marrow at 3 mg/kg/day, iv administered for 12 days by flow cytometry analysis (reference value: 32.23 %); assay type: functional; design: scale not given: the % may be the effect or the level left; settings: time 12 day
[36] = Toxicity in NOD/SCID mouse xenografted with human MV4-11 cells assessed as effect on body weight at 3 mg/kg/day, iv administered for 12 hrs; assay type: organism-based; settings: in vivo

Receptor-type tyrosine-protein kinase FLT3 (Homo sapiens), sequence (P36888 whole entry): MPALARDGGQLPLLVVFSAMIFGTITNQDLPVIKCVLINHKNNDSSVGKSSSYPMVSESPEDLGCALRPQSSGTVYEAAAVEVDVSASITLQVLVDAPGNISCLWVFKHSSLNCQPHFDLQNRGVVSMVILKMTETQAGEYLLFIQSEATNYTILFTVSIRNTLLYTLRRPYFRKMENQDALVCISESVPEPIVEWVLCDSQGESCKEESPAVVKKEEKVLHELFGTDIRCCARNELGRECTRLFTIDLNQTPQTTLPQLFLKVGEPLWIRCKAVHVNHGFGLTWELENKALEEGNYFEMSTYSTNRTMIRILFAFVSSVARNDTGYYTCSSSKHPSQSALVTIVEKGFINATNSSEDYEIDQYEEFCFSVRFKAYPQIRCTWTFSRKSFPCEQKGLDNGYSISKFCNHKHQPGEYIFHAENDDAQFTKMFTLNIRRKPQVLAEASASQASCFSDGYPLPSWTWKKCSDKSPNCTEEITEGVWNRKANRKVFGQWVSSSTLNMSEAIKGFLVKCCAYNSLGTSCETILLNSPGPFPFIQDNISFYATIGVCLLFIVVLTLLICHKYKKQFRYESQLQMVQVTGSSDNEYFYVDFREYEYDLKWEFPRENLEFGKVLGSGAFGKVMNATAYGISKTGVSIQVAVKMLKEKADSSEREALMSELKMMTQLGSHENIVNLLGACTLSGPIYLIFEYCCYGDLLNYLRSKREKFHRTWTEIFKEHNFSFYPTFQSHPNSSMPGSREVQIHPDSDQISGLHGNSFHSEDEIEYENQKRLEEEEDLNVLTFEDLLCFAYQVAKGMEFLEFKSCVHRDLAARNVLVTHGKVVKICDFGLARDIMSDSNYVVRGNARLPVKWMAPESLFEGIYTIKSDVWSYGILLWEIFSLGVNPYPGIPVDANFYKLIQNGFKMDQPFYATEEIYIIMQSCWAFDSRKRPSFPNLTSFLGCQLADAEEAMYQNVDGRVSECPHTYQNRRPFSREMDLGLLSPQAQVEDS
Receptor-type tyrosine-protein kinase FLT3 (Homo sapiens), P36888 [UNDEFINED MUTATION], sequence (P36888 whole entry, looked up, change not shown): as the sequence (P36888 whole entry) above
Mast/stem cell growth factor receptor Kit (Homo sapiens), sequence (P10721 whole entry): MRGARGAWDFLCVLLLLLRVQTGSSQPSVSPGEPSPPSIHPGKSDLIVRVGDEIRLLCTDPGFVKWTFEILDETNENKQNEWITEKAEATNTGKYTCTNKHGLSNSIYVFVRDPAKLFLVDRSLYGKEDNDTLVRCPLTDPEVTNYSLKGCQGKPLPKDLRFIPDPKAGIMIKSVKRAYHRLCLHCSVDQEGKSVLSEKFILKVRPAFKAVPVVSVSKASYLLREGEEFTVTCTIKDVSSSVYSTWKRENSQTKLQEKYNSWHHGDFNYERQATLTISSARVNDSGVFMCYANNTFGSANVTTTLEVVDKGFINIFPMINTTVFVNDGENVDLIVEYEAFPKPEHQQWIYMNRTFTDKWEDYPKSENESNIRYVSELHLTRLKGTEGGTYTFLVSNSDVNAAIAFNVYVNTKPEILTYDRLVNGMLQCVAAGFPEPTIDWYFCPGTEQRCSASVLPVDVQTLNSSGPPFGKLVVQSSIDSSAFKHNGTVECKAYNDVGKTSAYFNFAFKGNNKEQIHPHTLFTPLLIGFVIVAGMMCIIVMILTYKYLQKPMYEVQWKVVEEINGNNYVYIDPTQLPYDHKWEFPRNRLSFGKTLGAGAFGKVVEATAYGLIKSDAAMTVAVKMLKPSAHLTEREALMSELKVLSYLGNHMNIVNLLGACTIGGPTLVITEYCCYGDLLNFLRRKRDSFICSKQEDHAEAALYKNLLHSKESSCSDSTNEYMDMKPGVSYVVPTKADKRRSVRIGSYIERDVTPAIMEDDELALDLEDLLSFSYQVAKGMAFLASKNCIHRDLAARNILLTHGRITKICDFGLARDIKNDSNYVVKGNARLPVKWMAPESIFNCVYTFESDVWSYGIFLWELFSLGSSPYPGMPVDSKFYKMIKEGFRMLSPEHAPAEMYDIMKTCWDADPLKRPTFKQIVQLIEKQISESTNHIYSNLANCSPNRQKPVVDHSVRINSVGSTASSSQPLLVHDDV
Platelet-derived growth factor receptor beta (Homo sapiens), sequence (P09619 whole entry): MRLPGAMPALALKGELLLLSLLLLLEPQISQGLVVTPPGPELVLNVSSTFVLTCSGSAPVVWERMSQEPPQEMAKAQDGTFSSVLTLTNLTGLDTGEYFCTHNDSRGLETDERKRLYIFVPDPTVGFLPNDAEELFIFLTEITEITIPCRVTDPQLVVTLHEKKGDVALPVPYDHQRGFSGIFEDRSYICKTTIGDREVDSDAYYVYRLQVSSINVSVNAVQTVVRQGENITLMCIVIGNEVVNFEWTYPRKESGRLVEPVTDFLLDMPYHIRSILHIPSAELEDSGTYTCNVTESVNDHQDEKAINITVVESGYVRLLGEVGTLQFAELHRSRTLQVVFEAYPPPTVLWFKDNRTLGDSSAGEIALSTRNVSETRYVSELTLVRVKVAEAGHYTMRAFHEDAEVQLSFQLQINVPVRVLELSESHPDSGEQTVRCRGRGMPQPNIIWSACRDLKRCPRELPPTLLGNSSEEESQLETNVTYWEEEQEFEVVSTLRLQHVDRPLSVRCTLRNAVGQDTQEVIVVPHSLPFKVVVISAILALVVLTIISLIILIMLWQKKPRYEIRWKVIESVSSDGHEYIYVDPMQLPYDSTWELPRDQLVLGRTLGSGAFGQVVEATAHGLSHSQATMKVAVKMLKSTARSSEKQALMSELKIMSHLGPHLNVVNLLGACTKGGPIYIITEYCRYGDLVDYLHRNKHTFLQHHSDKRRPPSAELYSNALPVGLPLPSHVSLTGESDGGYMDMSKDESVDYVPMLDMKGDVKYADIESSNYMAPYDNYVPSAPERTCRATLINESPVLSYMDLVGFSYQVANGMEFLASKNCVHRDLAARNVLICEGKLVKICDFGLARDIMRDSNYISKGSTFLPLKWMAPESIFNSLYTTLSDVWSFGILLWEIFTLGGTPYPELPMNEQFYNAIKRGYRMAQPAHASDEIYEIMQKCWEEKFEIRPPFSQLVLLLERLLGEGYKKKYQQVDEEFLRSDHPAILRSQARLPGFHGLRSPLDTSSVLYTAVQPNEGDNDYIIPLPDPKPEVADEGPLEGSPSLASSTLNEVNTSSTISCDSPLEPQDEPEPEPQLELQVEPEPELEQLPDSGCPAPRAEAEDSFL

Nc1c(-c2nc3cc(N4CCN(CCCC(=O)Nc5cccc6c5C(=O)N(C5CCC(=O)NC5=O)C6=O)CC4)ccc3[nH]2)c(=O)[nH]c2cccc(F)c12 (configuration not stated)
IC50 (MOLM-13 [1]): 419 nM | IC50 (MV4-11 [2]): 739 nM

Nc1c(-c2nc3cc(N4CCN(C(=O)CCCC#Cc5cccc6c5C(=O)N(C5CCC(=O)NC5=O)C6=O)CC4)ccc3[nH]2)c(=O)[nH]c2cccc(F)c12 (configuration not stated)
IC50 (MOLM-13 [1]): 93.7 nM | IC50 (MV4-11 [2]): 424 nM

Nc1c(-c2nc3cc(N4CCN(CCCCC(=O)Nc5cccc6c5CN(C5CCC(=O)NC5=O)C6=O)CC4)ccc3[nH]2)c(=O)[nH]c2cccc(F)c12 (configuration not stated)
IC50 (MOLM-13 [1]): 751 nM | IC50 (MV4-11 [2]): > 1000 nM

Nc1c(-c2nc3cc(N4CCN(CCCCCC(=O)Nc5cccc6c5CN(C5CCC(=O)NC5=O)C6=O)CC4)ccc3[nH]2)c(=O)[nH]c2cccc(F)c12 (configuration not stated)
IC50 (MOLM-13 [1]): > 1000 nM | IC50 (MV4-11 [2]): > 1000 nM

Nc1c(-c2nc3cc(N4CCN(CCCCCC(=O)Nc5cccc6c5C(=O)N(C5CCC(=O)NC5=O)C6=O)CC4)ccc3[nH]2)c(=O)[nH]c2cccc(F)c12 (configuration not stated)
IC50 (MOLM-13 [1]): > 1000 nM | IC50 (MV4-11 [2]): 557 nM

Nc1c(-c2nc3cc(N4CCN(C(=O)CCCCNc5cccc6c5C(=O)N(C5CCC(=O)NC5=O)C6=O)CC4)ccc3[nH]2)c(=O)[nH]c2cccc(F)c12 (configuration not stated)
IC50 (MOLM-13 [1]): 10.1 nM | IC50 (MV4-11 [2]): 18.7 nM | Activity (MOLM-13 [3]): Dose-Dependent Effect | Activity (MV4-11 [4]): Dose-Dependent Effect | Activity (MOLM-13 [5]): Active | Activity (MV4-11 [6]): Active | Activity (MOLM-13 [7]): Active | Activity (MV4-11 [8]): Active | Activity (MOLM-13 [9]): Tde | Activity (MV4-11 [10]): Tde | Activity [11]: Dose-Dependent Effect | Activity [12]: Dose-Dependent Effect | Activity [13]: Active | Activity [14]: Active | Activity [15]: Active | Activity [16]: Active | inhibition [17]: Tde | inhibition [18]: Tde | inhibition [19]: Tde | inhibition [20]: Tde | inhibition [21]: Tde | inhibition [22]: Tde | inhibition [23]: Tde | inhibition [24]: Tde | inhibition [25]: Active | inhibition [26]: Active | inhibition [27]: Active | inhibition [28]: Active | Activity [29]: inactive | Activity [30]: inactive | Activity [31]: inactive | Activity [32]: Active | Activity (MOLM-13 [33]): Dose-Dependent Effect | Activity (MV4-11 [34]): Dose-Dependent Effect | Activity (MV4-11 [35]): 5.25% | Activity [36]: Non-Toxic

CN1C(=O)CCC(N2C(=O)c3cccc(NCCCCCC(=O)N4CCN(c5ccc6[nH]c(-c7c(N)c8c(F)cccc8[nH]c7=O)nc6c5)CC4)c3C2=O)C1=O (configuration not stated)
IC50 (MOLM-13 [1]): 141 nM | IC50 (MV4-11 [2]): 466 nM | Activity [11]: Dose-Dependent Effect | Activity [12]: Dose-Dependent Effect

Nc1c(-c2nc3cc(N4CCN(CCCCC(=O)Nc5cccc6c5C(=O)N(C5CCC(=O)NC5=O)C6=O)CC4)ccc3[nH]2)c(=O)[nH]c2cccc(F)c12 (configuration not stated)
IC50 (MOLM-13 [1]): > 1000 nM | IC50 (MV4-11 [2]): 726 nM

— ChEMBL document CHEMBL4840352 (J Med Chem, 2021)
